Reference: patent US9271982B2, “Animal feed supplement comprising ractopamine and caffeine” (Rivalea (Australia) Pty Ltd, priority 2012, dated 2016)
Where a name gives a salt, the structure may show the parent alone. Read-outs that look alike come from different tables or passages of the source.

Assays:
[1] = tested on: finisher gilts and Improvac males; test: Study 1: deaths, removals and animal welfare during the test period; settings: for Deaths (dead/total pigs in treatment group) / Deaths, percentage of pigs: Study 1, entire 35 day test period
Text: (§1) Pigs were selected to start on trial over three days during week 20 of the test year. […] All diets were formulated to contain 0.62 g available lysine/MJ DE and 13.8 MJ DE/kg.

[2] = tested on: female and immunocastrated male pigs; test: Study 3: RAC+caffeine feeding strategy over summer, growth performance and carcase characteristics; assay type: in vivo, pig
Protocol: (§2) Data were subjected to an analysis of variance (ANOVA) with the main effects being dietary treatment and sex. Replicate (start date within week) was included in the analyses to account for the blocking factor. The experimental unit for all analyses was the pen of pigs. All analyses were performed using Genstat 8th Edition (Payne et al. 2005).

[3] = tested on: female and immunocastrated male pigs; settings: Study 3, 35 day test period
Protocol: All animals were selected to start the trial on the one day. Prior to the start of the trial, all pigs were offered a commercial grower diet (no Paylean) and had been in their allocated pens from 10 weeks of age. No remixing of pigs occurred before the start of the test period. […] Oxytetracycline was included in water for two days every fortnight for lawsonia control.
The priming Improvac™ vaccination was administered to the male pigs at 13 weeks of age and the second vaccination at 17 weeks of age (day 0 of the experimental period). Pen weights were recorded at the beginning of the experimental period (day 0, 17 weeks of age) and again at day 14 and day 35 (prior to slaughter). Pen feed Intakes were also recorded over these time periods as measured by feed disappearance and feed conversion efficiency subsequently calculated. All deaths and removals were recorded and taken into account when calculating feed intake and feed efficiency by the adjustment of the number of days that pigs were on trial.

[4] = tested on: female and immunocastrated male pigs; test: Study 2: carcass (meat) yield in a subset of carcasses followed through the boning room; assay type: in vivo, pig; settings: Study 2 subset of carcasses, n = 12 per treatment
Text: Pigs were slaughtered in a commercial abattoir at the conclusion of the test period. A subset of carcasses (n=12 per treatment) were randomly selected at the abattoir and followed through the boning room for meat yield assessment.
as §2, with “included in,” for “included in”

[5] = tested on: female and immunocastrated male pigs; test: Study 2: RAC+caffeine strategy on heavier weight finishers, growth performance and carcass characteristics; assay type: in vivo, pig; settings: for ADFI / ADG / FCR: Study 2, RAC 7.5 ppm
Text: Pigs were selected over a two week period. […] A: Control; B: […] The interpretation of results is then a direct measure of the impact of commercial diets without RAC and commercial diets that do contain RAC. […] Pigs were slaughtered in a commercial abattoir at the conclusion of the test period. A subset of carcasses (n=12 per treatment) were randomly selected at the abattoir and followed through the boning room for meat yield assessment. Data were subjected to an analysis of variance (ANOVA) with the main effects being dietary treatment and sex. Replicate (start date within week) was included in, the analyses to account for the blocking factor. The experimental unit for all analyses was the pen of pigs. All analyses were performed using Genstat 8th Edition (Payne et al. 2005).

[6] = tested on: finisher gilts and Improvac males; assay type: in vivo, pig; settings: for ADFI / FCR / Live weight Day 0 / Live weight Day 14 / Live weight Day 35: RAC 7.5 ppm / caffeine 0.5 kg/t in feed; for Live weight Day 0: day 0 baseline, 16 wk of age; for % pigs P2 >12 mm (carcass weight as covariate): carcass weight included as covariate; for % pigs P2 >12 mm: no covariate
Protocol: as §1
as §2, with “R W, Harding S A, Genstat Committee 2005 Genstat release 8 reference manual, USN International: Oxford UK)” for “et al. 2005).”

[7] = tested on: finisher pigs; test: Earlier study evaluating caffeine inclusion rates in finisher diets; assay type: in vivo, pig; settings: for Feed intake: without caffeine 2.62 kg/d
Text: The management of weight and carcass P2 during Autumn is critical in markets that are paid on a grid of both parameters. The rate of fat deposition is at a maximum during the finisher period and is related to the amount of energy consumed by the pig. Excess energy intake above that required for protein deposition during this time is deposited as fat. As such, strategies to reduce feed intake from the excessive highs during autumn are often implemented. Caffeine is one ingredient that can be included in finisher diets to limit excessive feed intake. A study evaluating caffeine inclusion rates was conducted with the results confirming the intake restricting effects of caffeine inclusion. Feed intake was reduced from 2.62 kg/d to 2.45 and 2.33 kg/d with caffeine included in the diet at either 0.5 kg/t or 0.75 kg/t respectively. […] There has however been no evaluation of the effects of caffeine inclusion when the finisher diet also contains Paylean™. As such, the aim of this study was to determine the effects of caffeine inclusion when Paylean™ is also present in the finisher diet.

[8] = caffeine 0.5 kg/t in feed, 0-14 days
[9] = caffeine 0.5 kg/t in feed, 0-28 days
[10] = caffeine 0.5 kg/t in feed, 14-28 days
[11] = Study 2, carcass weight included as covariate
[12] = Study 1 (autumn), diets fed 35 days
[13] = Study 1 (autumn), diets fed 35 days, slaughter at 21 wk

CC(CCc1ccc(O)cc1)NCC(O)c1ccc(O)cc1 (racemic) [RAC, Ractopamine hydrochloride]
Off trial: Lame (number of pigs) ([1]; Study 1, 0-14 days): 1
Off trial: Meningitis (number of pigs) ([1]; Study 1, 0-14 days): 1
Off trial: Wound (number of pigs) ([1]; Study 1, 0-14 days): 1
TOTAL deaths and removals (number of pigs) ([1]; Study 1, 0-14 days): 3
Deaths: Hernia (number of pigs) ([1]; Study 1, 14-35 days): 1
Deaths: Ileitis (number of pigs) ([1]; Study 1, 14-35 days): 1
Off trial: Lame (number of pigs) ([1]; Study 1, 14-35 days): 1
TOTAL deaths and removals (number of pigs) ([1]; Study 1, 14-35 days): 3
Deaths (dead/total pigs in treatment group) [1]: 2/298
Deaths, percentage of pigs [1]: 0.67%
Live weight Day 14 ([2]; Study 3 (summer), RAC 7.5 ppm, caffeine 0.5 kg/t in feed, day 14): 79.4 kg
Live weight Day 35 ([2]; Study 3 (summer), RAC 7.5 ppm, caffeine 0.5 kg/t in feed, day 35): 100.5 kg
Average daily feed intake ([2]; Study 3 (summer), Day 0-14): 2.36 kg/day
Average daily gain ([2]; Study 3 (summer), Day 0-14): 1.132 kg/day
Feed conversion ratio ([2]; Study 3 (summer), Day 0-14): 2.15 kg/kg
Average daily feed intake ([2]; Study 3 (summer), Day 0-35): 2.62 kg/day
Average daily gain ([2]; Study 3 (summer), Day 0-35): 1.056 kg/day
Feed conversion ratio ([2]; Study 3 (summer), Day 0-35): 2.48 kg/kg
Average daily feed intake ([2]; Study 3 (summer), Day 14-35): 2.79 kg/day
Average daily gain ([2]; Study 3 (summer), Day 14-35): 1.004 kg/day
Feed conversion ratio ([2]; Study 3 (summer), Day 14-35): 2.80 kg/kg
Loin muscle depth ([2]; Study 3 (summer), carcase): 58.4 mm
P2 ([2]; Study 3 (summer), carcase, carcase weight not taken into account): 11.3 mm
Live weight Day 0 ([2]; Study 3 (summer, 17-22 wk), RAC 7.5 ppm, caffeine 0.5 kg/t in feed, day 0 baseline): 63.5 kg
Response (feed efficiency, daily gain, carcass composition) in words ([2]; Study 3, RAC at 7.5 ppm over the summer period): negligible
Average feed consumed ([2]; Study 3, entire test period): 2.6 kg feed/day
Feed efficiency, more efficient than the control animals ([2]; Study 3, initial 14 day period, not significant): approximately 4%
Average feed intake ([2]; Study 3, initial 14 days): 2.36 kg/day
Combined deaths and removals (number/total pigs) [3]: 5/228
Combined deaths and removals, percentage [3]: 2.2%
Deaths: APP (number of pigs) [3]: 2
Deaths: Lame (number of pigs) [3]: 2
Removals: Unthrifty (number of pigs) [3]: 1
Carcass P2 (carcass weight as covariate) [4]: 12.2 mm
Cold carcass weight [4]: 82.6 kg
HSCW [4]: 93.4 kg
Loin depth (carcass weight as covariate) [4]: 58.2 mm
Percentage Yield: Belly [4]: 20.7%
Percentage Yield: Belly Ribs [4]: 11.39%
Percentage Yield: Leg 90% chemical lean [4]: 6.90%
Percentage Yield: Middle 60-65% chemical lean [4]: 2.43%
Percentage Yield: Middle 80-85% chemical lean [4]: 9.72%
Percentage Yield: Middle rind plus fat [4]: 10.58%
Percentage Yield: Middle total fat [4]: 7.36%
Percentage Yield: Retail leg [4]: 35.80%
Percentage Yield: Tenderloin [4]: 3.65%
Percentage Yield: Topside cap off rind less [4]: 7.79%
Dressing % ([5]; Study 2): 77.1%
Live weight Day 0 ([5]; Study 2 (22-26 wk), RAC 7.5 ppm, caffeine 0.5 kg/t in feed, day 0 baseline): 92.1 kg
Live weight Day 14 ([5]; Study 2 (22-26 wk), RAC 7.5 ppm, caffeine 0.5 kg/t in feed, day 14): 106 kg
Live weight Day 28 ([5]; Study 2 (22-26 wk), RAC 7.5 ppm, caffeine 0.5 kg/t in feed, day 28, in kg (unit assumed)): 120.1
ADFI [5, 8]: 2.92 kg/day
ADG [5, 8]: 0.995 kg/day
FCR [5, 8]: 2.98 kg/kg
ADFI [5, 9]: 3.04 kg/day
ADG [5, 9]: 1.002 kg/day
FCR [5, 9]: 3.11 kg/kg
ADFI [5, 10]: 3.15 kg/day
ADG [5, 10]: 1.008 kg/day
FCR [5, 10]: 3.28 kg/kg
Carcass P2 (carcass weight as covariate) [5, 11]: 11.9 mm
Loin depth (carcass weight as covariate) [5, 11]: 58.3 mm
Carcass P2 ([5]; Study 2, no covariate): 12.0 mm
Carcass weight ([5]; Study 2, slaughter at 26 wk): 92.9 kg
ADFI ([6]; Study 1 (autumn), 0-14 days): 2.72 kg/day
FCR ([6]; Study 1 (autumn), 0-14 days): 2.34 kg/kg
ADFI ([6]; Study 1 (autumn), 0-35 days): 2.96 kg/day
FCR ([6]; Study 1 (autumn), 0-35 days): 2.67 kg/kg
ADFI ([6]; Study 1 (autumn), 14-35 days): 3.13 kg/day
FCR ([6]; Study 1 (autumn), 14-35 days): 2.92 kg/kg
Live weight Day 0 ([6]; Study 1 (autumn)): 61.2 kg
Live weight Day 14 ([6]; Study 1 (autumn)): 77.6 kg
Live weight Day 35 ([6]; Study 1 (autumn)): 100.1 kg
Dressing % [6, 12]: 77.6%
Carcass P2 (carcass weight as covariate) [6, 13]: 10.9 mm
Carcass weight [6, 13]: 77.6
% pigs P2 >12 mm (carcass weight as covariate) [6, 12]: 26.4%
% pigs P2 >12 mm [6, 12]: 29.0%

Cn1c(=O)c2c(ncn2C)n(C)c1=O [Caffeine]
Reduction of growth rate ([7]; caffeine 0.5 kg/t in diet): 95 g/day
Feed intake ([7]; caffeine 0.5 kg/t in diet): 2.45 kg/day
Reduction of growth rate ([7]; caffeine 0.75 kg/t in diet): 163 g/day
Feed intake ([7]; caffeine 0.75 kg/t in diet): 2.33 kg/day
Off trial: Meningitis (number of pigs) ([1]; Large White×Landrace, pig, in vivo): 1
TOTAL deaths and removals (number of pigs) ([1]; Study 1, 0-14 days): 0
Deaths: Ileitis (number of pigs) ([1]; Study 1, 14-35 days): 1
Deaths: SD (number of pigs) ([1]; Study 1, 14-35 days): 1
TOTAL deaths and removals (number of pigs) ([1]; Study 1, 14-35 days): 4
Deaths (dead/total pigs in treatment group) [1]: 2/307
Deaths, percentage of pigs [1]: 0.65%
Off trial: Lame (number of pigs) ([1]; both, Large White×Landrace, pig, in vivo): 1
ADFI ([6]; Study 1 (autumn), 0-14 days): 2.44 kg/day
FCR ([6]; Study 1 (autumn), 0-14 days): 2.64 kg/kg
ADFI ([6]; Study 1 (autumn), 0-35 days): 2.70 kg/day
FCR ([6]; Study 1 (autumn), 0-35 days): 2.78 kg/kg
ADFI ([6]; Study 1 (autumn), 14-35 days): 2.88 kg/day
FCR ([6]; Study 1 (autumn), 14-35 days): 2.89 kg/kg
Live weight Day 0 ([6]; Study 1 (autumn)): 61.3 kg
Live weight Day 14 ([6]; Study 1 (autumn)): 74.2 kg
Live weight Day 35 ([6]; Study 1 (autumn)): 95.3 kg
Dressing % [6, 12]: 77.9%
Carcass P2 (carcass weight as covariate) [6, 13]: 10.4 mm
Carcass weight [6, 13]: 74.1
% pigs P2 >12 mm (carcass weight as covariate) [6, 12]: 22.3%
% pigs P2 >12 mm [6, 12]: 19.5%
Carcass weight ([6]; Study 1, statistical comparison between diets): reduced carcass weight compared to either of the RAC treatment groups
